Measured values published in patent US20120232000A1, “METHODS AND COMPOSITIONS FOR PROMOTING REGENERATION BY INCREASING INTRACELLULAR SODIUM CONCENTRATION” (priority 2009, published 2012).
“Also recorded” adds a separate entry of the source.

Tests used:
Type in all cases: in vivo, Xenopus laevis
NaV1.2 protein = assay: Immunohistochemistry of NaV1.2 protein in the regeneration bud
Text: In order to better understand the role of NaV1.2, we examined its potential relationships with known regenerative pathways. First, we investigated the pathways potentially regulating NaV1.2 expression. […] However, in amputated tails treated with Concanamycin, a specific inhibitor of V-ATPase activity (Huss et al., 2002) that blocks regeneration (Adams et al., 2007), the expression of NaV1.2 protein was absent at 24 and 48 hpa (FIGS. 4A-4C). […] We next examined NaV1.2 protein expression during the refractory stages, an endogenous period during development in which tadpoles temporarily lose the ability of caudal regeneration (Beck et al., 2003). NaV1.2 protein was not detected in 24-hour tail stumps amputated during this non-regenerative state (FIG. 4D).
(§1) Xenopus embryos were fixed overnight in MEMFA, heated for 2 hrs at 65° C. in 50% formamide (to inactivate endogenous alkaline phosphatases), permeabilized in PBTr+0.1% Triton X100 for 30 min, and processed for immunohistochemistry using alkaline phosphatase secondary antibody (Levin, 2004) until signal was optimal and background minimal (usually 12 hrs). The expression profiles represent consensus patterns obtained from the analysis of 8-12 embryos at each stage. Pan-anti-NaV (Sigma S-8809), anti-acetylated a-tubulin (Sigma #T6793), and anti-phospho-H3 (Upstate #05-598) antibodies were used at 1:1000.

[1] = tested on: Na^+ influx into the regeneration bud; assay: Imaging of sodium flux with CoroNa Green indicator dye
Description: NaV1.2 is a membrane-bound Na^+ transporter that regulates the influx of Na^+ into cells (Yu and Catterall, 2003). Thus, we examined the functional consequences of Na^+ transport in regeneration using MS-222. […] In intact tails, a few randomly distributed cells appear positive for the CoroNa Green signal relative to the majority of the tail population (FIG. 3A). […] When the amputated tails were treated with the NaV inhibitor, MS-222, the CoroNa Green signal was abolished (FIG. 3C, p<0.02), confirming that inhibition of NaV1.2 function abrogates Na^+ influx into the bud.
(§2) At 23 hpa, tadpoles were incubated in 90 μM of CoroNa Green indicator dye (Invitrogen) in 0.1×MMR for 45 minutes and washed twice in 0.1×MMR+30 uM BTS (to immobilize tadpole movement). At 24 hpa, the CoroNa Green signal was excited at […] and fluorescence emission data was collected at […]. Data was analyzed using IPLab software. For induction of Na^+ current, 0.1×MMR was supplemented with sodium gluconate (Sigma) to increase the Na^+ concentration to 90 mM. For refractory period analysis, tails were amputated at st. 47, at 18 hpa, and animals were treated with or without 90 mM Na^+ and 20 μM monensin (Sigma) in 0.1×MMR with 90 μM CoroNa Green for 45 minutes and washed twice in 0.1×MMR+50 uM BTS. Imaging of Vmem using DiBAC4(3) (Invitrogen) was performed exactly as described in (Adams et al., 2007).

Delta = assay: Expression level of Delta in the regeneration bud (data not shown); settings: in the presence of MS-222, data not shown
BMP4 = assay: Expression level of BMP4 in the regeneration bud (data not shown); settings: in the presence of MS-222, data not shown
Text: (§3) RNA expression of Notch, Msx1, and BMP components can be observed after 24 hpa in the regenerating tail tissues. We performed in situ hybridization using gene-specific RNA probes to examine the expression patterns of Notch and Msx1 in the regeneration bud after treatment with MS-222. In wild-type regeneration buds at 48 hpa, Notch1 is normally expressed in the neural ampulla and in the mesenchymal region of the regeneration bud (FIGS. 4F and 4H). […] At 48 hpa, Msx1 was expressed in the neural ampulla and at the epithelial edge of the regenerating tail tip (FIGS. 4J and 4L). When NaV activity was blocked, Msx1 expression was abolished (FIGS. 4K and 4M).

axons of the regenerate = assay: Acetylated α-tubulin staining of axons in tail regenerates; settings: 72 hpa (3-day) tails, MS-222 treated
Text: It has long been known that regenerative growth requires proper innervation (Singer, 1952, 1965). Thus, we asked whether NaV1.2 regulates neural regeneration by examining the neuronal pattern in the amputated tail of tadpoles treated with MS-222. In normal 3-day old tail regenerates, axons appear in bundles that grow and concentrate to the end of the regenerate, in a direction parallel to the anterior-posterior axis (FIG. 3G).
as §1

Notch1 = assay: RNA in situ hybridization of Notch1 in the regeneration bud; settings: 48 hpa, MS-222 after amputation
Text: as §3
(§4) Embryos were fixed in MEMFA (Sive et al., 2000) and dehydrated in methanol. In situ hybridization was carried out according to standard protocols (Harland, 1991) with probes to: NaV1.2 (AY121368), NaV1.5 (Armisen et al., 2002), Notch1 (Coffman et al., 1990), and Msx1 (Feledy et al., 1999).

Msx1 = assay: RNA in situ hybridization of Msx1 in the regeneration bud; settings: 48 hpa, MS-222 after amputation
Text: as §3, §4

regeneration bud = assay: Apoptosis in the regeneration bud (data not shown); settings: MS-222 after tail amputation
Text: (§5) To characterize the temporal requirement of NaV1.2 function during regeneration, we looked to utilize pharmacological inhibitors of NaV1.2 that will enable us to vary the timing of the functional blockade. First, we determined whether chemical inhibition of NaV1.2 activity recapitulates its loss-of-function phenotype during regeneration. MS-222 (also known as tricaine) is a well-known inhibitor of VGSCs (Hedrick and Winmill, 2003) that blocks inward Na^+ currents (Frazier and Narahashi, 1975). […]. […] Importantly, the μM concentrations used for the tail assays were approximately ten-fold lower than what is usually used for amphibian anesthesia (generally in the mM range). Similar to the NaV1.2 RNAi experiment, the overall development and movement of the animals were normal during pharmacological treatment, and had no effect on primary tail formation during early embryogenesis. We conclude that NaV1.2 function is specifically required for regeneration, and that both pharmacological and molecular loss-of-function to selectively reveal the importance of NaV1.2.

[2] = tested on: membrane voltage of regeneration bud cells; assay: Imaging of membrane voltage with the voltage dye DiBAC4(3); settings: 24 hpa, versus control
Text: To gain a detailed mechanistic understanding of NaV1.2 activity, we examined the consequences of modulating Na^+ ion transport in the regenerating tail. During development, the intact tail is hyper-polarized with a few depolarized cells that are randomly distributed (Adams et al., 2007). However, after tail amputation, the presumptive regeneration bud becomes highly depolarized. […]. If the bud is polarized at this timepoint, then regeneration proceeds normally; if the bud remains depolarized (as when V-ATPase is inactivated, either during the refractory period or by Concanamycin), then regeneration fails. Because VGSC activity is also a well-known major determinant of a cell's membrane potential level, we hypothesized that loss of NaV1.2 activity could alter the membrane voltage state of the regeneration buds at 24 hpa.
as §2, with “47, at 18 hpa, and animals were treated with or without 90 mM Na^+ and 20 μM monensin (Sigma) in 0.1×MMR with 90 μM CoroNa Green for 45 minutes and washed twice in 0.1×MMR+50 uM BTS. Imaging of Vmem using DiBAC4(3) (Invitrogen) was performed exactly as described in (Adams et al., 2007).” left out

[3] = tested on: Xenopus tail regeneration; assay: Tail regeneration assay, tails amputated at stages 40-41, scored at 7 days; settings: for tail regeneration: treatment after amputation at st. 40, 7 days
Description: Xenopus laevis larvae were cultured using standard protocols approved for the care of experimental organisms. Tails at stages 40-41, or stages 45-47 (refractory period) (Nieuwkoop and Faber, 1967) were amputated under a dissecting microscope using a scalpel blade at the midpoint between the anus and the tip. Tadpoles were cultured in (0.1×MMR±inhibitor) at 22° C. for 7 days and scored for tail regeneration. Drug experiments were carried out at least in duplicate.
To quantify and compare regeneration efficiency of tadpoles treated with different reagents, the “Regeneration Index” (RI) was determined. The RI evaluates the efficiency of regeneration for each treatment and allows for comparison of the effect of various treatments to controls.
Individual animals for each specific treatment were each scored as follows:
Full: complete regeneration (indistinguishable from uncut controls).
Good: robust regeneration with minor defects (e.g., missing fin, curved axis).
Poor: poor regeneration (hypomorphic/defective regenerates).
For each treatment, the percentage of regenerates belonging to each category were calculated, and then multiplied by 3, 2, 1 or 0, respectively for, Full, Good, Poor and None. The resulting R1 for each condition tested ranges from 0 to 300, with 0 corresponding to no regeneration, and 300 for complete regeneration.
Xenopus laevis larvae were cultured via approved protocols (IACUC #M2008-08). Tails at stages 40-41, or stages 45-47 (refractory period) (Nieuwkoop and Faber, 1967) were amputated at the midpoint between the anus and the tip. Tadpoles were cultured in (0.1×MMR±reagent) at 22° C. for 7 days and scored for tail regeneration. […]

BMP2 = assay: Expression level of BMP2 in the regeneration bud (data not shown); settings: in the presence of MS-222, data not shown
Text: as §3

Xenopus tadpoles = assay: Observation of overall development and movement of treated animals; settings: during pharmacological treatment in the tail assay
Text: as §5

[4] = tested on: H3P-positive (mitotic) cells; assay: Anti-H3P immunohistochemistry of mitotic cells in amputated tails; settings: 48 hpa, versus control siblings
Text: To understand the cellular basis for regenerative failure in animals with loss of NaV1.2 function, we examined proliferation in MS-222-treated amputated tails. During development, mitotic cells are observed to be randomly located in the growing tail. […]. We quantified the number and distribution of proliferating cells in regenerating tails at 48 hpa using an antibody to phosphorylated Histone 3B (H3P), a marker of the G2/M transition of the cell cycle that identifies mitotic cells in Xenopus and many other systems (Adams et al., 2007; Saka and Smith, 2001). […]. Many H3P-positive cells are seen in the wild-type regeneration bud (FIG. 3E) but very few are detected in MS-222 treated buds (FIG. 3F).
as §1

[5] = tested on: Xenopus tail regeneration during the refractory period; assay: Tail regeneration assay, tails amputated during the refractory period (stages 45-47)
[6] = 24 hpa regeneration bud, MS-222 treated

Compound: C/C=C/[C@H]1O[C@@](O)([C@@H](C)[C@H](O)[C@H](C)[C@H]2OC(=O)/C(OC)=C/C(C)=C/[C@@H](C)[C@@H](O)[C@@H](CC)[C@@H](O)[C@H](C)C/C(C)=C/C=C/[C@@H]2OC)C[C@@H](O)[C@@H]1C [Concanamycin]
- NaV1.2 protein expression in the regeneration bud (NaV1.2 protein; 24 hpa): absent
- NaV1.2 protein expression in the regeneration bud (NaV1.2 protein; 48 hpa): absent

Compound: CCOC(=O)c1cccc(N)c1.CS(=O)(=O)O [MS-222]
- CoroNa Green signal / Na^+ entry into the bud [1, 6]: abolished; also recorded: blocks Na^+ entry into the bud
- decrease in CoroNa Green signal versus control buds [1, 6]: 70%
- level of Delta (Delta): greatly reduced
- level of BMP4 (BMP4): greatly reduced
- axon pattern and quantity in the regenerate (axons of the regenerate): axons to extend circumferentially along the edge of the regeneration bud; also recorded: overall quantity of neurons appeared to be reduced
- Notch1 RNA expression (Notch1): greatly reduced; also recorded: greatly down-regulated and mis-localized
- Msx1 RNA expression (Msx1): abolished; also recorded: absent
- apoptosis in the bud (regeneration bud): did not induce significant apoptosis
- change of membrane voltage in regeneration bud cells [2]: did not observe any changes in membrane voltage
- Regeneration Index (RI) ([3]; MS-222 (250 μM per FIG. 2B) immediately after tail amputation, scored at 7 days, RI 0-300, controls RI=265): 62
- effect on regeneration ([3]; MS-222 added at 48 hpa, after regenerative outgrowth has begun): no effect
- tails that failed to regenerate ([3]; MS-222 for the first 48 hpa): 78%
- tadpoles in which tail regeneration was prevented ([3]; MS-222 for the first 24 hours post amputation): 45%
- tails with inhibited regeneration ([3]; MS-222 through the entire 7 days of the assay): 82%
- tail regeneration [3]: failed to regenerate; also recorded: inhibition of regeneration is dosage-dependent
- level of BMP2 (BMP2): greatly reduced
- overall development and movement of the animals (Xenopus tadpoles): normal
- decrease in the number of mitotic cells in the regeneration bud region [4]: 90%

Compound: CN[C@@H]1C[C@H]2O[C@@](C)([C@@H]1OC)n1c3ccccc3c3c4c(c5c6ccccc6n2c5c31)C(=O)NC4 [Staurosporine]
- regenerative ability relative to controls ([3]; 10 nM STS on amputated tails): 28 % of controls
- tail regeneration [3]: strong reduction
- overall development and movement of the animals (Xenopus tadpoles): otherwise unaffected

Compound: CC[C@@]1([C@@H]2O[C@@H]([C@H]3O[C@@](O)(CO)[C@H](C)C[C@@H]3C)C[C@@H]2C)CC[C@H]([C@]2(C)CC[C@]3(C[C@H](O)[C@@H](C)[C@@H]([C@@H](C)[C@@H](OC)[C@H](C)C(=O)O)O3)O2)O1 [monensin]
- CoroNa Green signal at the amputation site ([1]; refractory tails at 19 hpa, after one hour of 20 uM monensin in 90 mM Na^+ medium): strong CoroNa Green fluorescence; also recorded: significantly stronger CoroNa Green signal
- Regeneration Index (RI) ([5]; 20 uM monensin in medium containing 90 mM Na^+ for one hour at 18 hpa, refractory controls 11.5, n=44): 59.1
- increase of regeneration over the control ([5]; 20 μM monensin with 90 mM Na^+, 1 hour at 18 hpa): 3 fold
- tadpoles with induced regeneration ([5]; 20 μM monensin with 90 mM Na^+, 1 hour at 18 hpa, 7 dpa, controls 11%): 36%
- regenerated tails showing good to full regeneration ([5]; 20 μM monensin with 90 mM Na^+, 1 hour at 18 hpa, share of the regenerating tails): 45%
- regenerative ability ([5]; monensin alone, without high extracellular Na^+, data not shown): did not improve regenerative ability

Compound: insulin
- animals showing good or full regeneration ([5]; insulin at 0 hours post amputation, assayed at 7 days, control 16%): 39%
- Regeneration Index (RI) ([5]; insulin at 0 hours post amputation, assayed at 7 days, control RI=62, RI of 300 = full regeneration): 118
